Laboratory results as given in BindingDB's records for doi:10.1016/j.bmcl.2008.05.016 (Astrazeneca R&D Boston, 2008).

Assay: Inhibition of Cdk1

With `CN(C)c1ccc(-c2cc(C(=O)N[C@H]3CCCNC3)c(NC(N)=O)s2)cc1` [(S)-1-(5-(4-(dimethylamino)phenyl)-3-(piperidin-3-ylcarbamoyl)thiophen-2-yl)urea] the IC50 was 8.4 µM.

In the case of `NC(=O)Nc1sc(-c2ccc(F)cc2)cc1C(=O)N[C@H]1CCCNC1` [(S)-1-(5-(4-fluorophenyl)-3-(piperidin-3-ylcarbamoyl)thiophen-2-yl)urea], the IC50 is reported as 3.3 µM.

Work on `CCN(CC)CCOc1ccc(-c2cc(C(=O)NC3CCNCC3)c(NC(N)=O)s2)cc1` [1-(5-(4-(2-(diethylamino)ethoxy)phenyl)-3-(piperidin-4-ylcarbamoyl)thiophen-2-yl)urea] yielded an IC50 greater than 69 µM.

With `NC(=O)Nc1sc(-c2cccc(F)c2)cc1C(=O)N[C@H]1CCCNC1` [1-(3-((S)-piperidin-3-ylcarbamoyl)-5-(3-fluorophenyl)thiophen-2-yl)urea] the IC50 was 5.6 µM.

Work on `CN(C)C(=O)c1ccc(-c2cc(C(=O)N[C@H]3CCCNC3)c(NC(N)=O)s2)cc1` [(S)-1-(5-(4-(dimethylcarbamoyl)phenyl)-3-(piperidin-3-ylcarbamoyl)thiophen-2-yl)urea] yielded an IC50 of 3.7 µM.

Compound `CCN(CC)CCOc1ccc(-c2cc(C(=O)Nc3cccnc3)c(NC(N)=O)s2)cc1` [1-(5-(4-(2-(diethylamino)ethoxy)phenyl)-3-(pyridin-3-ylcarbamoyl)thiophen-2-yl)urea] has an IC50 of 44 µM.

In the case of `CCN(CC)CCOc1ccc(-c2cc(C(=O)NC3CCNC3)c(NC(N)=O)s2)cc1` (configuration not stated) [1-(5-(4-(2-(diethylamino)ethoxy)phenyl)-3-(pyrrolidin-3-ylcarbamoyl)thiophen-2-yl)urea], the IC50 is reported as greater than 100 µM.

With `Cc1ccc(-c2cc(C(=O)N[C@H]3CCCNC3)c(NC(N)=O)s2)cc1` [(S)-1-(3-(piperidin-3-ylcarbamoyl)-5-p-tolylthiophen-2-yl)urea] the IC50 was 5.5 µM.

`NC(=O)Nc1sc(-c2ccc(C(=O)N3CCCCC3)cc2)cc1C(=O)N[C@H]1CCCNC1` [(S)-1-(3-(piperidin-3-ylcarbamoyl)-5-(4-(piperidine-1-carbonyl)phenyl)thiophen-2-yl)urea] gave an IC50 of 10.8 µM.

Work on `NC(=O)Nc1sc(-c2cccc(Cl)c2)cc1C(=O)N[C@H]1CCCNC1` [1-(3-((S)-piperidin-3-ylcarbamoyl)-5-(3-chlorophenyl)thiophen-2-yl)urea] yielded an IC50 of 8.8 µM.

Work on `CS(=O)(=O)c1ccc(-c2cc(C(=O)N[C@H]3CCCNC3)c(NC(N)=O)s2)cc1` [(S)-1-(5-(4-(methylsulfonyl)phenyl)-3-(piperidin-3-ylcarbamoyl)thiophen-2-yl)urea] yielded an IC50 of 2.2 µM.

`NC(=O)Nc1sc(-c2ccncc2)cc1C(=O)N[C@H]1CCCNC1` [(S)-1-(3-(piperidin-3-ylcarbamoyl)-5-(pyridin-4-yl)thiophen-2-yl)urea] gave an IC50 of 1.8 µM.
